In brackets after ≈: the same amount, converted by molar mass.
What was measured:
Type in all cases: functional
[1] = tested on: Haemophilus influenzae; test: Antimicrobial susceptibility against Haemophilus influenzae B isolate with AcrR Leu31His mutation
[2] = tested on: Haemophilus influenzae; test: Antimicrobial susceptibility against Haemophilus influenzae B1 isolate with GyrA Asp88Tyr and AcrR Leu31His mutation
[3] = tested on: Haemophilus influenzae; test: Antimicrobial susceptibility against Haemophilus influenzae B2 isolate with GyrA Asp88Tyr and AcrR Leu31His mutation
[4] = tested on: Haemophilus influenzae; test: Antimicrobial susceptibility against Haemophilus influenzae C isolate with AcrR Leu31His and Arg34Glu mutation
[5] = tested on: Haemophilus influenzae; test: Antimicrobial susceptibility against Haemophilus influenzae C1 isolate with GyrA Asp88Asn, AcrR Leu31His and Arg34Glu mutation
[6] = tested on: Haemophilus influenzae; test: Antimicrobial susceptibility against Haemophilus influenzae C2 isolate with GyrA Asp88Asn, AcrR Leu31His and Arg34Glu mutation
[7] = tested on: Haemophilus influenzae; test: Antimicrobial susceptibility against Haemophilus influenzae C3 isolate with GyrA Asp88Asn, ParC Ser84Ile, AcrR Leu31His and Arg34Glu mutation
[8] = tested on: Haemophilus influenzae; test: Antimicrobial susceptibility against Haemophilus influenzae D isolate with AcrR Leu31His, Ile121Val and Gln134Lys mutation
[9] = tested on: Haemophilus influenzae; test: Antimicrobial susceptibility against Haemophilus influenzae D1 isolate with GyrA Ser84Tyr, ParC Glu88Lys and AcrR Leu31His, Ile121Val and Gln134Lys mutation
[10] = tested on: Haemophilus influenzae; test: Antimicrobial susceptibility against Haemophilus influenzae D2 isolate with GyrA Ser84Tyr, ParC Glu88Lys and AcrR Leu31His, Ile121Val and Gln134Lys mutation
[11] = tested on: Haemophilus influenzae; test: Antimicrobial susceptibility against Haemophilus influenzae D3 isolate with GyrA Ser84Tyr, ParC Glu88Lys and AcrR Leu31His, Ile121Val and Gln134Lys mutation
[12] = tested on: Haemophilus influenzae; test: Antimicrobial susceptibility against Haemophilus influenzae D4 isolate with GyrA Ser84Tyr, ParC Glu88Lys and AcrR Leu31His, Ile121Val and Gln134Lys mutation
[13] = tested on: Haemophilus influenzae; test: Antimicrobial susceptibility against Haemophilus influenzae A isolate with GyrA Glu83Cys and AcrR 97stop codon mutation
[14] = tested on: Haemophilus influenzae; test: Antimicrobial susceptibility against Haemophilus influenzae A1 isolate with GyrA Glu83Cys, ParC Ser84Arg and AcrR 97stop codon mutation
[15] = tested on: Haemophilus influenzae; test: Antimicrobial susceptibility against Haemophilus influenzae A2 with GyrA Glu83Cys, ParC Ser84Arg and AcrR 97stop codon mutation
[16] = tested on: Haemophilus influenzae; test: Antimicrobial susceptibility against Haemophilus influenzae A3 isolate with GyrA Glu83Cys, ParC Ser84Arg and AcrR 97stop codon mutation
[17] = tested on: Haemophilus influenzae; test: Antimicrobial susceptibility against Haemophilus influenzae A4 isolate with GyrA Glu83Cys, ParC Ser84Arg and AcrR 97stop codon mutation

| Structure (SMILES) | MIC [1] [µg/mL] | MIC [2] [µg/mL] | MIC [3] [µg/mL] | MIC [4] [µg/mL] | MIC [5] [µg/mL] | MIC [6] [µg/mL] | MIC [7] [µg/mL] | MIC [8] [µg/mL] | MIC [9] [µg/mL] | MIC [10] [µg/mL] | MIC [11] [µg/mL] | MIC [12] [µg/mL] | MIC [13] [µg/mL] | MIC [14] [µg/mL] | MIC [15] [µg/mL] | MIC [16] [µg/mL] | MIC [17] [µg/mL] |
| --- | --- | --- | --- | --- | --- | --- | --- | --- | --- | --- | --- | --- | --- | --- | --- | --- | --- |
| O=C(O)c1cn(C2CC2)c2cc(N3CCNCC3)c(F)cc2c1=O [CIPROFLOXACIN] | 0.03 (≈ 0.0905 µM) | 0.12 (≈ 0.362 µM) | 0.25 (≈ 0.754 µM) | 0.01 (≈ 0.0302 µM) | 0.12 (≈ 0.362 µM) | 2 (≈ 6.04 µM) | 8 (≈ 24.1 µM) | 0.01 (≈ 0.0302 µM) | 1 (≈ 3.02 µM) | 4 (≈ 12.1 µM) | 8 (≈ 24.1 µM) | 16 (≈ 48.3 µM) | 0.01 (≈ 0.0302 µM) | 0.25 (≈ 0.754 µM) | 0.25 (≈ 0.754 µM) | 2 (≈ 6.04 µM) | 4 (≈ 12.1 µM) |
| C[C@H]1COc2c(N3CCN(C)CC3)c(F)cc3c(=O)c(C(=O)O)cn1c23.C[C@H]1COc2c(N3CCN(C)CC3)c(F)cc3c(=O)c(C(=O)O)cn1c23.O [LEVOFLOXACIN] | 0.03 | 0.25 | 0.25 | 0.03 | 0.12 | 2 | 8 | 0.03 | 0.5 | 2 | 4 | 4 | 0.03 | 0.25 | 0.5 | 0.5 | 4 |
| COc1c(N2C[C@@H]3CCCN[C@@H]3C2)c(F)cc2c(=O)c(C(=O)O)cn(C3CC3)c12 [MOXIFLOXACIN] | 0.06 (≈ 0.149 µM) | 0.25 (≈ 0.623 µM) | 0.25 (≈ 0.623 µM) | 0.03 (≈ 0.0747 µM) | 0.12 (≈ 0.299 µM) | 4 (≈ 9.96 µM) | 4 (≈ 9.96 µM) | 0.03 (≈ 0.0747 µM) | 0.5 (≈ 1.25 µM) | 2 (≈ 4.98 µM) | 2 (≈ 4.98 µM) | 2 (≈ 4.98 µM) | 0.03 (≈ 0.0747 µM) | 0.5 (≈ 1.25 µM) | 0.5 (≈ 1.25 µM) | 0.5 (≈ 1.25 µM) | 2 (≈ 4.98 µM) |
| CCn1cc(C(=O)O)c(=O)c2ccc(C)nc21 [NALIDIXIC ACID] | 0.5 (≈ 2.15 µM) | 32 (≈ 138 µM) | 64 (≈ 276 µM) | 0.5 (≈ 2.15 µM) | 16 (≈ 68.9 µM) | 128 (≈ 551 µM) | 128 (≈ 551 µM) | 0.5 (≈ 2.15 µM) | 64 (≈ 276 µM) | 64 (≈ 276 µM) | 128 (≈ 551 µM) | 128 (≈ 551 µM) | 0.5 (≈ 2.15 µM) | 1 (≈ 4.31 µM) | 64 (≈ 276 µM) | 64 (≈ 276 µM) | 128 (≈ 551 µM) |

Reference: ChEMBL document CHEMBL1147114, “Fluoroquinolone resistance in Haemophilus influenzae is associated with hypermutability” (2007)
